Reference: PMC9250534, “Synthesis and direct assay of large macrocycle diversities by combinatorial late-stage modification at picomole scale” (Nature Communications, 2022)
Numbered stars: 1 amine (or outer) side, 2 acyl side, 3 side chain; on linkers, the order of the positions; unused ones are H or OH. Bridge positions count the residues as written; N and C are the ends. Square brackets hold non-standard residues; d marks the D form. Peptide text beside a SMILES is read from it. * marks the point of attachment. ξ: configuration not given here. Pro(cis-4-NH-(E)-Cinnamoyl) = O=C(/C=C/c1ccccc1)N[C@@H]1CN[C@H](C(=O)O)C1; Pro(cis-4-NHBenzoyl(4-Cl)) = O=C(N[C@@H]1CN[C@H](C(=O)O)C1)c1ccc(Cl)cc1; ξPro(4-NHCO(5-Cl-2-thienyl)) = O=C(NC1CNC(C(=O)O)C1)c1ccc(Cl)s1; 2Thenoyl(5-Cl) = O=C(c1ccc(Cl)s1)*; Benzoyl(4-Cl) = O=C(c1ccc(Cl)cc1)*; Cysteamide = C(CS[*:3])N[*:1]; X1 = O=C(/C=C/c1ccccc1)*; Api = NC1(C(=O)O)CCNCC1; Dap = NC[CH](N)C(=O)O; Mpa = O=C(O)CCS

Target: MDM2 (Homo sapiens, UniProt Q00987)
Sequence (Q00987 whole entry): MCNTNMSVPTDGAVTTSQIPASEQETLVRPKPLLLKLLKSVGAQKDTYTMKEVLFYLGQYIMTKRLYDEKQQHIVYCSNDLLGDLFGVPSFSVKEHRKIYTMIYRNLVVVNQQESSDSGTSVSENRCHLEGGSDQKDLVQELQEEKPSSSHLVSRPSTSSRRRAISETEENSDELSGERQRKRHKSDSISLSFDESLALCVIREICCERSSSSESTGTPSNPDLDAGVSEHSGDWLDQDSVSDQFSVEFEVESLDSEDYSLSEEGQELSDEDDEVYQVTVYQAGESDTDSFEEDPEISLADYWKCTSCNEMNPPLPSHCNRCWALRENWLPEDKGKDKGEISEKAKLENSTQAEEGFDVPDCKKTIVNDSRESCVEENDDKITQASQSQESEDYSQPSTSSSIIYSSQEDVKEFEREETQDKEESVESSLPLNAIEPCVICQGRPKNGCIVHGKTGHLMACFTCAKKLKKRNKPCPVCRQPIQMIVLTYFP
Experiment: MDM2 binding screen: displacement of fluorescent p53 peptide probe FP53 (fluorescence polarization)
Settings: for fraction fluorescent probe displaced, Screen: initial screen; for fraction fluorescent probe displaced, Screen / fraction fluorescent probe displaced, Replicate: crude macrocycle reactions
Method: We screened Library 2 in 384-microwell plates by dispensing the target protein MDM2 and reporter peptide into the wells containing the macrocycle reactions.
The products were screened for displacement of a p53-based fluorescent peptide from human MDM2. Final macrocycle concentrations were 10 µM. For each macrocycle, the MDM2 binding was measured once.
One fluorescence anisotropy reading was taken with a Tecan Infinite F200 Pro fluorescence plate reader (excitation at 485 nm, emission at 535 nm) at 25 °C. Data was collected and exported using the Tecan Infinite M200 Pro instrument software. The data was analyzed by Excel (version 2016).

O=C1CCSSCCNC(=O)C(Cc2c[nH]c3ccccc23)NC(=O)C2CN(C(=O)c3ccc(Cl)cc3)CCN2C(=O)CCN1 (mixture of isomers) [X B2 D7 W Acid 25]
fraction fluorescent probe displaced, Screen (Acid 25): 0.15
fraction fluorescent probe displaced, Replicate (Acid 25): 0.07

O=C1CCSSCCNC(=O)C2CN(C(=O)c3ccc(Cl)cc3)CCN2C(=O)C(Cc2ccccc2)NC(=O)CCN1 (mixture of isomers) [X B2 F D7 Acid 25]
fraction fluorescent probe displaced, Screen (Acid 25): -0.07
fraction fluorescent probe displaced, Replicate (Acid 25): 0.0465

O=C1CCSSCCNC(=O)C2CN(C(=O)c3ccc(Cl)s3)CCN2C(=O)C(Cc2c[nH]c3ccccc23)NC(=O)CCN1 (mixture of isomers) [X B2 W D7 Acid 14]
fraction fluorescent probe displaced, Screen (Acid 14): 0.23
fraction fluorescent probe displaced, Replicate (Acid 14): 0.10

O=C1CCSSCCNC(=O)C(Cc2ccccc2)NC(=O)C2CN(C(=O)c3ccc(Cl)s3)CCN2C(=O)c2cccc(c2)CN1 (mixture of isomers) [X B5 D7 F Acid 14]
fraction fluorescent probe displaced, Screen (Acid 14): -0.00483
fraction fluorescent probe displaced, Replicate (Acid 14): 0.0465

O=C1CCSSCCNC(=O)C(Cc2ccccc2)NC(=O)C2CN(C(=O)C=Cc3ccccc3)CCN2C(=O)c2cccc(c2)CN1 (mixture of isomers) [X B5 D7 F Acid 91]
fraction fluorescent probe displaced, Screen (Acid 91): -0.10
fraction fluorescent probe displaced, Replicate (Acid 91): -0.00827

O=C1CCSSCCNC(=O)C2CN(C(=O)c3ccc(Cl)cc3)CCN2C(=O)C(Cc2ccccc2)NC(=O)c2cccc(c2)CN1 (mixture of isomers) [X B5 F D7 Acid 25]
fraction fluorescent probe displaced, Screen (Acid 25): -0.00813
fraction fluorescent probe displaced, Replicate (Acid 25): 0.17

O=C1CCNC(=O)C2CN(C(=O)c3ccc(Cl)cc3)CCN2C(=O)CCSSCCNC(=O)C(Cc2ccccc2)N1 (mixture of isomers) [X D7 B2 F Acid 25]
fraction fluorescent probe displaced, Screen (Acid 25): -0.04
fraction fluorescent probe displaced, Replicate (Acid 25): 0.07

O=C1NC(Cc2c[nH]c3ccccc23)C(=O)NCCSSCCC(=O)N2CCN(C(=O)c3ccc(Cl)cc3)CC2C(=O)N2CCCC1C2 (mixture of isomers) [X D7 B4 W Acid 25]
fraction fluorescent probe displaced, Screen (Acid 25): 0.25
fraction fluorescent probe displaced, Replicate (Acid 25): 0.25

O=C1NCCSSCCC(=O)N2CCN(C(=O)c3ccc(Cl)s3)CC2C(=O)NC(Cc2ccccc2)C(=O)NCc2cccc1c2 (mixture of isomers) [X D7 F B5 Acid 14]
fraction fluorescent probe displaced, Screen (Acid 14): 0.11
fraction fluorescent probe displaced, Replicate (Acid 14): 0.17

O=C1NCCSSCCC(=O)N2CCN(C(=O)c3ccc(Cl)cc3)CC2C(=O)NC(Cc2c[nH]c3ccccc23)C(=O)NCc2cccc1c2 (mixture of isomers) [X D7 W B5 Acid 25]
fraction fluorescent probe displaced, Screen (Acid 25): 0.61
fraction fluorescent probe displaced, Replicate (Acid 25): 0.58

O=C1CCSSCCNC(=O)C2CCCN2C(=O)C2CN(C(=O)C=Cc3ccccc3)CCN2C(=O)C(Cc2ccccc2)N1 (mixture of isomers) [X F D7 B1 Acid 91]
fraction fluorescent probe displaced, Screen (Acid 91): -0.0241
fraction fluorescent probe displaced, Replicate (Acid 91): -0.06

O=C1CCSSCCNC(=O)c2cccc(c2)CNC(=O)C2CN(C(=O)c3ccc(Cl)cc3)CCN2C(=O)C(Cc2ccccc2)N1 (mixture of isomers) [X F D7 B5 Acid 25]
fraction fluorescent probe displaced, Screen (Acid 25): 0.09
fraction fluorescent probe displaced, Replicate (Acid 25): 0.07

O=C1CCSSCCNC(=O)C2CN(C(=O)C=Cc3ccccc3)CCN2C(=O)C2CCCN2C(=O)C(Cc2c[nH]c3ccccc23)N1 (mixture of isomers) [X W B1 D7 Acid 91]
fraction fluorescent probe displaced, Screen (Acid 91): 0.22
fraction fluorescent probe displaced, Replicate (Acid 91): 0.07

O=C1CCSSCCNC(=O)C2CN(C(=O)c3ccc(Cl)s3)CCN2C(=O)CCNC(=O)C(Cc2c[nH]c3ccccc23)N1 (mixture of isomers) [X W B2 D7 Acid 14]
fraction fluorescent probe displaced, Screen (Acid 14): 0.08
fraction fluorescent probe displaced, Replicate (Acid 14): 0.17

O=C1CCSSCCNC(=O)C2CCCN2C(=O)C2CN(C(=O)C=Cc3ccccc3)CCN2C(=O)C(Cc2c[nH]c3ccccc23)N1 (mixture of isomers) [X W D7 B1 Acid 91]
fraction fluorescent probe displaced, Screen (Acid 91): -0.08
fraction fluorescent probe displaced, Replicate (Acid 91): 0.0168

CC(C)=CCCC(C)CC(=O)NCC1NC(=O)C2CCCN2C(=O)CCSSCCNC(=O)C(Cc2c[nH]c3ccccc23)NC1=O (mixture of isomers) [X-B1-D3-W + A84]
fraction fluorescent probe displaced (10 µM macrocycle concentration, crude acylated macrocycle (scaffold Mpa-AA1-AA2-AA3 x carboxylic acid), p53-based fluorescent peptide, human MDM2): 0.05085

O=C(NC[C@@H]1NC(=O)[C@@H]2CCCN2C(=O)CCSSCCNC(=O)[C@H](Cc2ccccc2)NC1=O)c1ccc(Cl)cc1 [X B1 D3 F Acid 25] ([Mpa]P[Dap](Benzoyl(4-Cl))F-Cysteamide; disulfide 1-C)
fraction fluorescent probe displaced, Screen (Acid 25): 0.22
fraction fluorescent probe displaced, Replicate (Acid 25): 0.22

O=C(/C=C/c1ccccc1)NC[C@@H]1NC(=O)[C@@H]2CCCN2C(=O)CCSSCCNC(=O)[C@H](Cc2ccccc2)NC1=O [X B1 D3 F Acid 91] ([Mpa]P[Dap](X1)F-Cysteamide; disulfide 1-C)
fraction fluorescent probe displaced, Screen (Acid 91): 0.08
fraction fluorescent probe displaced, Replicate (Acid 91): 0.0168

O=C(NC[C@@H]1NC(=O)[C@@H]2CCCN2C(=O)CCSSCCNC(=O)[C@H](Cc2c[nH]c3ccccc23)NC1=O)c1ccc(Cl)s1 [X B1 D3 W Acid 14] ([Mpa]P[Dap](2Thenoyl(5-Cl))W-Cysteamide; disulfide 1-C)
fraction fluorescent probe displaced, Screen (Acid 14): 0.17
fraction fluorescent probe displaced, Replicate (Acid 14): 0.10

O=C(NCC1NC(=O)C2CCCN2C(=O)CCSSCCNC(=O)C(Cc2c[nH]c3ccccc23)NC1=O)c1ccc(Cl)cc1 (stereo not drawn) [X B1 D3 W Acid 25] ([Mpa]P[Dap](Benzoyl(4-Cl))W-Cysteamide; disulfide 1-C; configuration not given here)
fraction fluorescent probe displaced, Screen (Acid 25): 0.22
fraction fluorescent probe displaced, Replicate (Acid 25): 0.20

O=C(/C=C/c1ccccc1)NC[C@@H]1NC(=O)[C@@H]2CCCN2C(=O)CCSSCCNC(=O)[C@H](Cc2c[nH]c3ccccc23)NC1=O [X B1 D3 W Acid 91] ([Mpa]P[Dap](X1)W-Cysteamide; disulfide 1-C)
fraction fluorescent probe displaced, Screen (Acid 91): 0.11
fraction fluorescent probe displaced, Replicate (Acid 91): 0.07

O=C(N[C@H]1C[C@H]2C(=O)N[C@@H](Cc3ccccc3)C(=O)NCCSSCCC(=O)N3CCC[C@H]3C(=O)N2C1)c1ccc(Cl)cc1 [X B1 D5 F Acid 25] ([Mpa]P[Pro(cis-4-NHBenzoyl(4-Cl))]F-Cysteamide; disulfide 1-C)
fraction fluorescent probe displaced, Screen (Acid 25): 0.16
fraction fluorescent probe displaced, Replicate (Acid 25): 0.15

O=C(NC1CC2C(=O)NC(Cc3c[nH]c4ccccc34)C(=O)NCCSSCCC(=O)N3CCCC3C(=O)N2C1)c1ccc(Cl)s1 (stereo not drawn) [X B1 D5 W Acid 14] ([Mpa]P[ξPro(4-NHCO(5-Cl-2-thienyl))]W-Cysteamide; disulfide 1-C; configuration not given here)
fraction fluorescent probe displaced, Screen (Acid 14): 0.28
fraction fluorescent probe displaced, Replicate (Acid 14): 0.0465

O=C(/C=C/c1ccccc1)N[C@H]1C[C@H]2C(=O)N[C@@H](Cc3c[nH]c4ccccc34)C(=O)NCCSSCCC(=O)N3CCC[C@H]3C(=O)N2C1 [X B1 D5 W Acid 91] ([Mpa]P[Pro(cis-4-NH-(E)-Cinnamoyl)]W-Cysteamide; disulfide 1-C)
fraction fluorescent probe displaced, Screen (Acid 91): 0.03
fraction fluorescent probe displaced, Replicate (Acid 91): 0.04

O=C1NCCSSCCC(=O)N2CCC[C@H]2C(=O)NC2(CCN(C(=O)c3ccc(Cl)s3)CC2)C(=O)N[C@H]1Cc1ccccc1 [X B1 D6 F Acid 14] ([Mpa]P[Api](2Thenoyl(5-Cl))F-Cysteamide; disulfide 1-C)
fraction fluorescent probe displaced, Screen (Acid 14): -0.0116
fraction fluorescent probe displaced, Replicate (Acid 14): 0.07

O=C1NCCSSCCC(=O)N2CCC[C@H]2C(=O)NC2(CCN(C(=O)/C=C/c3ccccc3)CC2)C(=O)N[C@H]1Cc1ccccc1 [X B1 D6 F Acid 91] ([Mpa]P[Api](X1)F-Cysteamide; disulfide 1-C)
fraction fluorescent probe displaced, Screen (Acid 91): -0.10
fraction fluorescent probe displaced, Replicate (Acid 91): 0.05

O=C1NCCSSCCC(=O)N2CCC[C@H]2C(=O)NC2(CCN(C(=O)/C=C/c3ccccc3)CC2)C(=O)N[C@H]1Cc1c[nH]c2ccccc12 [X B1 D6 W Acid 91] ([Mpa]P[Api](X1)W-Cysteamide; disulfide 1-C)
fraction fluorescent probe displaced, Screen (Acid 91): -0.08
fraction fluorescent probe displaced, Replicate (Acid 91): -0.08

O=C1NCCSSCCC(=O)N2CCCC2C(=O)N2CCN(C(=O)c3ccc(Cl)cc3)CC2C(=O)NC1Cc1c[nH]c2ccccc12 (stereo not drawn) [X B1 D7 W Acid 25]
fraction fluorescent probe displaced, Screen (Acid 25): 0.09
fraction fluorescent probe displaced, Replicate (Acid 25): 0.10

O=C(NC[C@@H]1NC(=O)[C@H](Cc2ccccc2)NC(=O)[C@@H]2CCCN2C(=O)CCSSCCNC1=O)c1ccc(Cl)s1 [X B1 F D3 Acid 14] ([Mpa]PF[Dap](2Thenoyl(5-Cl))-Cysteamide; disulfide 1-C)
fraction fluorescent probe displaced, Screen (Acid 14): 0.08
fraction fluorescent probe displaced, Replicate (Acid 14): 0.10

O=C(NC[C@@H]1NC(=O)[C@H](Cc2ccccc2)NC(=O)[C@@H]2CCCN2C(=O)CCSSCCNC1=O)c1ccc(Cl)cc1 [X B1 F D3 Acid 25] ([Mpa]PF[Dap](Benzoyl(4-Cl))-Cysteamide; disulfide 1-C)
fraction fluorescent probe displaced, Screen (Acid 25): 0.09
fraction fluorescent probe displaced, Replicate (Acid 25): 0.20

O=C(NC1CC2C(=O)NCCSSCCC(=O)N3CCCC3C(=O)NC(Cc3ccccc3)C(=O)N2C1)c1ccc(Cl)s1 (stereo not drawn) [X B1 F D5 Acid 14] ([Mpa]PF[ξPro(4-NHCO(5-Cl-2-thienyl))]-Cysteamide; disulfide 1-C; configuration not given here)
fraction fluorescent probe displaced, Screen (Acid 14): 0.11
fraction fluorescent probe displaced, Replicate (Acid 14): 0.07

O=C1NC2(CCN(C(=O)c3ccc(Cl)s3)CC2)C(=O)NCCSSCCC(=O)N2CCCC2C(=O)NC1Cc1ccccc1 (stereo not drawn) [X B1 F D6 Acid 14] ([Mpa]PF[Api](2Thenoyl(5-Cl))-Cysteamide; disulfide 1-C; configuration not given here)
fraction fluorescent probe displaced, Screen (Acid 14): 0.08
fraction fluorescent probe displaced, Replicate (Acid 14): 0.07
